{"source": "patent US20050143328A1", "about": "“COMPOSITION AND TREATMENT FOR ENVELOPE VIRUS INFECTIONS” (priority 2003, published 2005)", "system": "herpes simplex I", "assay": "Topical treatment of herpes simplex I / cold sores with a neomycin B composition", "assay_type": "in vivo", "conditions": "between 3.5 and 5 mg/g neomycin B combined with pramoxine hydrochloride in petroleum jelly", "description": "Example 2: This embodiment of the invention is a compound similar to that disclosed in Example 1, except that it is specifically targeted to the treatment of herpes simplex I and the prevention of physiological manifestations of herpes simplex I (e.g., cold sores). […] However, for longer-term use or storage, preservatives like methylparaben are utilized to avoid contamination, and the ingredients preferably comprise an emulsion or suspension to distribute evenly the physiologically active ingredients."}
{"smiles": "NC[C@@H]1O[C@H](O[C@H]2[C@@H](O)[C@H](O[C@@H]3[C@@H](O)[C@H](N)C[C@H](N)[C@H]3O[C@H]3O[C@H](CN)[C@@H](O)[C@H](O)[C@H]3N)O[C@@H]2CO)[C@H](N)[C@@H](O)[C@@H]1O", "note": "[neomycin B]", "values": [{"measurement": "outcome of the experiment (treatment of herpes simplex I and prevention of its manifestations, e.g. cold sores)", "value": "ultimately effective"}]}
